Results taken from PMC9779727, “Identification of Novel Artemisinin Hybrids Induce Apoptosis and Ferroptosis in MCF-7 Cells” (International Journal of Molecular Sciences, 2022).

Columns and labels:
MCF-7 cells [1] = assay: Cell colony formation assay; type: cell-based, human; settings: 12 d
Protocol: We chose a cell colony formation assay to determine the antiproliferative effect of the compound more intuitively.
MCF-7 cells were seeded into 6-well plates at 37 °C with 5% CO2 for 24 h and then treated with compound A8 at various concentrations (0, 2.5, 5 and 10 μM), ART (10 μM) and 5-FU (10 μM) for 12 d. Then, cells were stained with Giemsa and clones number were counted directly with naked eyes.

MCF-7 cells [2] = assay: GSH level detection; type: cell-based, human
From the text: We also determined the effect of A8 on the expression of GSH and MDA (lipid peroxidation).
Lipid peroxidation assay kit (Beyotime, Shanghai, China) was used to detect malonaldehyde (MDA), together with GSH level assay, present in samples, as per the manufacturer’s instruction with slight modifications.

CYP2C9 = target: T1, CYP2C9 (Homo sapiens, UniProt P11712); assay: CYPs inhibition assay, CYP2C9; type: in vitro ADME; settings: human liver microsomes
T1 construct: from tissue; host or cells: human liver microsomes
Protocol: Finally, we evaluated the interaction between the hybrid A8 and five major metabolic enzymes (CYP1A2, CYP2C9, CYP2C19, CYP2D6 and CYP3A4) in the human body. […] It is also one of the directions for our further transformation and optimization.
Cytochrome P450 inhibition was evaluated in human liver microsomes (0.253 mg/mL) using five […] (CYP1A2, α-Naphthoflavone; CYP2C9, Sulfaphenazole; CYP2C19, Benzylnirvanol; CYP2D6, Quinidine; and CYP3A4, Ketoconazole.) in the presence of compound A8 (10 μM). After preincubation for 10 min at 37 °C, an NADPH-regenerating system was added. After the mixed system was incubated for 15 min at 37 °C, the reaction was stopped by adding 400 μL of cold stop solution (200 ng/mL tolbutamide and 200 ng/mL labetalol in acetonitrile). Then, the mixture was centrifuged, and the supernatant was analyzed by LC-MS/MS.

[3] = test system: breast cancer MDA-MB-231 cells; assay: MTT antiproliferation assay, MDA-MB-231; type: cell-based, human; settings: 48 h, means ± SD, n = 3
From the text: (§1) The target hybrids A1–A15 were screened for their antiproliferation activities against five human cancer cell lines (lung cancer A549 cells, breast cancer MCF-7 and MDA-MB-231 cells, colon cancer HCT116 cells and ovarian cancer SK-OV-3 cells) in vitro by the standard MTT method, and 5-fluorouracil (5-FU) and ART were coassayed as controls. […] Therefore, the most promising hybrid, A8, was chosen for further exploration of the preliminary mechanism of MCF-7 cell antiproliferation.
(§2) Cytotoxicity of test compounds against five different tumor cell lines were evaluated using an MTT assay in vitro. Cells were seeded into 96-well plates at a density of 5 × 10^4 cells per well and stabilized at 37 °C with 5% CO2 for 24 h. Compounds A1–A15, ART and 5-FU were added to each well at various concentrations and then the cells were incubated for 48 h. The MTT solution (100 μL 0.5 mg/mL^−1) was added to each well, and the cells were incubated for another 4 h. Then, 150 μL DMSO was added to each well and the absorbance of samples was measured at 492 nm. The IC50 values were calculated according to Logit method after getting the inhibitory rate.

MCF-7 cells [4] = assay: Annexin V-FITC/PI apoptosis assay (flow cytometry); type: cell-based, human; settings: 48 h
Protocol: (§3) To investigate whether hybrid A8 exerts an antitumor effect on MCF-7 cells by inducing apoptosis, an annexin V-FITC/PI binding assay was performed. MCF-7 cells were treated with vehicle or various concentrations (2.5, 5 and 10 μM) of hybrid A8 for 48 h and were then stained with FITC-annexin V and propidium iodide (PI). The percentages of apoptotic MCF-7 cells were determined by flow cytometry. A8-induced apoptosis in a dose-dependent manner. The percentages of total apoptotic cells (Q1-UR + Q1-LR) were 17.99% (2.5 μM), 35.98% (5 μM) and 48.65% (10 μM). […] In addition, obvious changes in cell morphology were also observed.
Cells apoptosis was assessed using Annexin V/PI staining assay. MCF-7 cells were seeded into 6-well plates for 24 h and then treated with compound A8 at various concentrations (0, 2.5, 5 and 10 μM) for 48 h. Then, cells were collected, washed with 500 μL annexin-binding buffer and stained with 5 μL annexin V-FITC and 5 μL PI for 15 min at 25 °C. After that, the samples were analyzed by flow cytometry (Beckman Coulter cytoFLEX, Brea, CA, USA).

MCF-7 cells [5] = assay: TUNEL staining; type: cell-based, human; settings: MCF-7, varying concentrations
Protocol: as §3
The slides were immersed in 4% paraformaldehyde (pH 7.4) for 25 min at room temperature and then washed with PBS 3 times. The cells were immersed in 0.1% Triton X-100 solution prepared with PBS for 10 min (operation on ice) and then washed twice with PBS. Dilute 5 × equilibration buffer with deionized water and 100 μL 1 × equilibration buffer was added to each climbing tablet to cover the sample area to be tested, then incubated at room temperature for 15 min. […] The water-absorbent paper was used to absorb the liquid on the climbing sheet, and the sealing liquid containing anti fluorescence quenching agent was used to seal the film, and then the images were observed and collected under the fluorescence microscope.

[6] = test system: colon cancer HCT116 cells; assay: MTT antiproliferation assay, HCT116; type: cell-based, human; settings: 48 h, means ± SD, n = 3
From the text: as §1, §2

T1 sequence (P11712 whole entry): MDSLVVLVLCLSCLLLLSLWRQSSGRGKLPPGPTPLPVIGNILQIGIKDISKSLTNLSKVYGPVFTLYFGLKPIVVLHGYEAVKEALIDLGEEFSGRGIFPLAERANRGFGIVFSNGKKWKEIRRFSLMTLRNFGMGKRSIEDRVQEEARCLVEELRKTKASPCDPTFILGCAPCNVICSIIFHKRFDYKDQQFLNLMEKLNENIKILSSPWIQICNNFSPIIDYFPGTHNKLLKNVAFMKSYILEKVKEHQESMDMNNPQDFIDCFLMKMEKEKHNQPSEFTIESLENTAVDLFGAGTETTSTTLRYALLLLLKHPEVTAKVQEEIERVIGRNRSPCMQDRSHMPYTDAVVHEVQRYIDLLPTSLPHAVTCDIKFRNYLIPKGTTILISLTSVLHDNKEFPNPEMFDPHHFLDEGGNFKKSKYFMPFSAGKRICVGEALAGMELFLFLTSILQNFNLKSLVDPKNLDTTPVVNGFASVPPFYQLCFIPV

Structure (SMILES): CC1CCC2C(C)C(OC(=O)CCC(=O)NCc3nnc(Nc4ccc(F)cc4F)o3)OC3OC4(C)CCC1C32OO4 (stereo not shown) [A8]
- cell colony number (in words) (MCF-7 cells [1]; MCF-7, 0, 2.5, 5 and 10 μM): decreased in a dose-dependent manner
- antiproliferative effect in colony formation compared with controls (in words) (MCF-7 cells [1]; MCF-7, same administration concentration (10 μM)): better than that of 5-FU and ART
- GSH level (in words) (MCF-7 cells [2]): decreased significantly
- Inhibition at 10 μM (%) CYP2C9 (CYP2C9): 6.4%
- IC50 [3]: 5.27 ± 0.02 µM
- percentage of total apoptotic cells (Q1-UR + Q1-LR) (MCF-7 cells [4]; MCF-7, 2.5 μM): 17.99%
- percentage of total apoptotic cells (Q1-UR + Q1-LR) (MCF-7 cells [4]; MCF-7, 5 μM): 35.98%
- percentage of total apoptotic cells (Q1-UR + Q1-LR) (MCF-7 cells [4]; MCF-7, 10 μM): 48.65%
- number of cells that emitted red fluorescence (apoptotic cells), TUNEL (in words) (MCF-7 cells [5]): increased as the administration concentration increased
- IC50 [6]: 9.71 ± 0.37 µM
